Assay results as given in patent US11505573B2, “Peptide macrocycles against Acinetobacter baumannii” (Hoffmann-La Roche Inc., priority 2018, dated 2022).

system: A. baumannii ATCC 17978; experiment: Antimicrobial susceptibility testing: 50% growth inhibitory concentration (IC50) determination in Iso-Sensitest broth; assay type: cell-based; details: Acinetobacter baumannii; A. baumannii strain ATCC17978; Iso-Sensitest medium; OD 600 nm over 16 h; 35±2° C.; read-out: IC50 ATCC17978 (50% growth inhibition concentration)
Protocol: Antimicrobial Susceptibility Testing: 50% Growth Inhibitory Concentration (IC50) Determination The in vitro antimicrobial activity of the compounds was alternatively determined according to the following procedure: The assay used a 10-points Iso-Sensitest broth medium to measure quantitatively the in vitro activity of the compounds against A. baumannii ATCC 17978. Stock compounds in DMSO were serially twofold diluted (e.g. range from 10 to 0.02 μM final concentration) in 384 wells microtiter plates and inoculated with 49 μl the bacterial suspension in Iso-Sensitest medium to have a final cell concentration of ˜5×10^(5) CFU/ml in a final volume/well of […] Microtiter plates were incubated at 35±2° C. Bacterial cell growth was determined by the measurement of optical density at λ=600 nm each 20 minutes over a time course of 16 h. Growth inhibition was calculated during the logarithmic growth of the bacterial cells by determination of the concentration inhibiting 50% (IC50) and 90% (IC90) of the growth. Table 1 provides the 50% growth inhibitory concentrations (IC50) in micromoles per liter of the compounds of present invention obtained against the A. baumannnii strain ATCC17978.

Row | SMILES | IC50
1 | CN1C(=O)[C@H](CCCN)NC(=O)[C@H](CCCN)NCc2cccnc2Sc2c(Cl)ccc(-c3cnc(=O)[nH]c3)c2CNC(=O)[C@@H]1Cc1c[nH]c2ccccc12 [Example 8.02, (11S,14S,17S)-11,14-bis(3-aminopropyl)-25-chloro-17-(1H-indol-3-ylmethyl)-16-methyl-22-(2-oxo-1H-pyrimidin-5-yl)-2-thia-4,10,13,16,19-pentazatricyclo[19.4.0.03,8]pentacosa-1(21),3,5,7,22,24-hexaene-12,15,18-trione] | 80 nM
2 | CN1C(=O)[C@H](CCCN)NC(=O)[C@H](CCCN)NCc2cccnc2Sc2c(F)ccc(-c3ccc(P(=O)(O)O)cc3)c2CNC(=O)[C@@H]1Cc1c[nH]c2ccccc12 [Example 10.00, [4-[(11S,14S,17S)-11,14-Bis(3-aminopropyl)-25-fluoro-17-(1H-indol-3-ylmethyl)-16-methyl-12,15,18-trioxo-2-thia-4,10,13,16,19-pentazatricyclo[19.4.0.03,8]pentacosa-1(25), 3(8),4,6,21,23-hexaen-22-yl]phenyl]phosphonic acid] | 620 nM
3 | CN1C(=O)[C@H](CCCCN)NC(=O)[C@H](CCC(N)=O)NCc2cccnc2Sc2c(Cl)ccc(-c3ccc(P(=O)(O)O)cc3)c2CNC(=O)[C@@H]1Cc1c[nH]c2ccccc12 [Example 10.01, [4-[(11S,14S,17S)-14-(4-aminobutyl)-11-(3-amino-3-oxo-propyl)-25-chloro-17-(1H-indol-3-ylmethyl)-16-methyl-12,15,18-trioxo-2-thia-4,10,13,16,19-pentazatricyclo[19.4.0.03,8]pentacosa-1(21),3,5,7,22,24-hexaen-22-yl]phenyl]phosphonic acid] | 3030 nM
4 | CN1C(=O)[C@H](CCCCN)NC(=O)[C@H](CCCN)NCc2cccnc2Sc2c(Cl)ccc(-c3ccc(P(=O)(O)O)cc3)c2CNC(=O)[C@@H]1Cc1c[nH]c2ccccc12 [Example 10.02, [4-[(11S,14S,17S)-14-(4-aminobutyl)-11-(3-aminopropyl)-25-chloro-17-(1H-indol-3-ylmethyl)-16-methyl-12,15,18-trioxo-2-thia-4,10,13,16,19-pentazatricyclo[19.4.0.03,8]pentacosa-1(21),3,5,7,22,24-hexaen-22-yl]phenyl]phosphonic acid] | 150 nM
5 | Cc1ccc(-c2ccc(-c3nnn[nH]3)cc2)c2c1Sc1ncccc1CN[C@@H](CCCN)C(=O)N[C@@H](CCCCN)C(=O)N(C)[C@@H](Cc1c[nH]c3ccccc13)C(=O)NC2 [Example 11.01, (11S,14S,17S)-14-(4-Aminobutyl)-11-(3-aminopropyl)-17-(1H-indol-3-ylmethyl)-16,25-dimethyl-22-[4-(1H-tetrazol-5-yl)phenyl]-2-thia-4,10,13,16,19-pentazatricyclo[19.4.0.03,8]pentacosa-1(25), 3(8),4,6,21,23-hexaene-12,15,18-trione] | 20 nM
6 | CN1C(=O)[C@H](CCCCN)NC(=O)[C@H](CCN)NCc2cccnc2Sc2c(Cl)ccc(-c3ccc(S(=O)(=O)O)cc3)c2CNC(=O)[C@@H]1Cc1c[nH]c2ccccc12 [Example 12.00, 4-[(11S,14S,17S)-14-(4-Aminobutyl)-11-(2-aminoethyl)-25-chloro-17-(1H-indol-3-ylmethyl)-16-methyl-12,15,18-trioxo-2-thia-4,10,13,16,19-pentazatricyclo[19.4.0.03,8]pentacosa-1(25), 3(8),4,6,21,23-hexaen-22-yl]benzenesulfonic acid] | 20 nM
7 | CN1C(=O)[C@H](CCCN)NC(=O)[C@H](CCN)NCc2cccnc2Sc2c(Cl)ccc(-c3ccc(S(=O)(=O)O)cc3)c2CNC(=O)[C@@H]1Cc1c[nH]c2ccccc12 [Example 13.00, 4-[(11S,14S,17S)-11-(2-Aminoethyl)-14-(3-aminopropyl)-25-chloro-17-(1H-indol-3-ylmethyl)-16-methyl-12,15,18-trioxo-2-thia-4,10,13,16,19-pentazatricyclo[19.4.0.03,8]pentacosa-1(25), 3(8),4,6,21,23-hexaen-22-yl]benzenesulfonic acid] | 20 nM
8 | C[C@@H]1NCc2cccnc2Sc2c(Cl)ccc(-c3ccc(S(=O)(=O)O)cc3)c2CNC(=O)[C@H](Cc2c[nH]c3ccccc23)N(C)C(=O)[C@H](CCCN)NC1=O [Example 14.00, 4-[(11S,14S,17S)-14-(3-Aminopropyl)-25-chloro-17-(1H-indol-3-ylmethyl)-11,16-dimethyl-12,15,18-trioxo-2-thia-4,10,13,16,19-pentazatricyclo[19.4.0.03,8]pentacosa-1(25), 3(8),4,6,21,23-hexaen-22-yl]benzenesulfonic acid] | 720 nM
9 | COc1ccc(-c2ccc(S(=O)(=O)O)cc2)c2c1Sc1ncccc1CN[C@@H](CCCN)C(=O)N[C@@H](CCCCN)C(=O)N(C)[C@@H](Cc1c[nH]c3ccccc13)C(=O)NC2 [Example 15.00, 4-[(11S,14S,17S)-14-(4-Aminobutyl)-11-(3-aminopropyl)-17-(1H-indol-3-ylmethyl)-25-methoxy-16-methyl-12,15,18-trioxo-2-thia-4,10,13,16,19-pentazatricyclo[19.4.0.03,8]pentacosa-1(25), 3(8),4,6,21,23-hexaen-22-yl]benzenesulfonic acid] | 80 nM

Further lines, results first:

Row | IC50 | SMILES
10 | 20 nM | CN1C(=O)[C@H](CCCN)NC(=O)[C@H](CCCN)NCc2cccnc2Sc2c(Cl)ccc(-c3ccc(-c4nnn[nH]4)cc3)c2CNC(=O)[C@@H]1Cc1c[nH]c2ccccc12 [Example 8.01, (11S,14S,17S)-11,14-bis(3-aminopropyl)-25-chloro-17-(1H-indol-3-ylmethyl)-16-methyl-22-[4-(1H-tetrazol-5-yl)phenyl]-2-thia-4,10,13,16,19-pentazatricyclo[19.4.0.03,8]pentacosa-1(21),3,5,7,22,24-hexaene-12,15,18-trione]
11 | 20 nM | CN1C(=O)[C@H](CCCN)NC(=O)[C@H](CCCN)NCc2cccnc2Sc2c(F)ccc(-c3ccc(S(=O)(=O)O)cc3)c2CNC(=O)[C@@H]1Cc1c[nH]c2ccccc12 [Example 9.00, 4-[(11S,14S,17S)-11,14-Bis(3-aminopropyl)-25-fluoro-17-(1H-indol-3-ylmethyl)-16-methyl-12,15,18-trioxo-2-thia-4,10,13,16,19-pentazatricyclo[19.4.0.03,8]pentacosa-1(25), 3(8),4,6,21,23-hexaen-22-yl]benzenesulfonic acid]
12 | 20 nM | CN1C(=O)[C@H](CCCN)NC(=O)[C@H](CCCN)NCc2cccnc2Sc2c(F)ccc(-c3ccc(-c4nnn[nH]4)cc3)c2CNC(=O)[C@@H]1Cc1c[nH]c2ccccc12 [Example 9.01, (11S,14S,17S)-11,14-Bis(3-aminopropyl)-25-fluoro-17-(1H-indol-3-ylmethyl)-16-methyl-22-[4-(1H-tetrazol-5-yl)phenyl]-2-thia-4,10,13,16,19-pentazatricyclo[19.4.0.03,8]pentacosa-1(25), 3(8),4,6,21,23-hexaene-12,15,18-trione]
13 | 20 nM | Cc1ccc(-c2ccc(S(=O)(=O)O)cc2)c2c1Sc1ncccc1CN[C@@H](CCCN)C(=O)N[C@@H](CCCCN)C(=O)N(C)[C@@H](Cc1c[nH]c3ccccc13)C(=O)NC2 [Example 11.00, 4-[(11S,14S,17S)-14-(4-Aminobutyl)-11-(3-aminopropyl)-17-(1H-indol-3-ylmethyl)-16,25-dimethyl-12,15,18-trioxo-2-thia-4,10,13,16,19-pentazatricyclo[19.4.0.03,8]pentacosa-1(25), 3(8),4,6,21,23-hexaen-22-yl]benzenesulfonic acid]
